Laboratory results taken from article PMC9966845, “Targeting Siderophore-Mediated Iron Uptake in M. abscessus: A New Strategy to Limit the Virulence of Non-Tuberculous Mycobacteria” (Pharmaceutics, 2023).
Read-outs that look alike come from different tables or passages of the source.

Columns and labels:
Mab-SaS [1] = molecular target: T1, Mab-SaS (Mycobacteroides abscessus, UniProt B1MAQ5); assay: Mab-SaS inhibition, fluorimetric enzymatic assay; type: biochemical, M. abscessus; conditions: for remaining activity at 100 µM: 100 μM ligand concentration, read-out: %RA (residual enzymatic activity)
T1 sequence (B1MAQ5 entry or part of it): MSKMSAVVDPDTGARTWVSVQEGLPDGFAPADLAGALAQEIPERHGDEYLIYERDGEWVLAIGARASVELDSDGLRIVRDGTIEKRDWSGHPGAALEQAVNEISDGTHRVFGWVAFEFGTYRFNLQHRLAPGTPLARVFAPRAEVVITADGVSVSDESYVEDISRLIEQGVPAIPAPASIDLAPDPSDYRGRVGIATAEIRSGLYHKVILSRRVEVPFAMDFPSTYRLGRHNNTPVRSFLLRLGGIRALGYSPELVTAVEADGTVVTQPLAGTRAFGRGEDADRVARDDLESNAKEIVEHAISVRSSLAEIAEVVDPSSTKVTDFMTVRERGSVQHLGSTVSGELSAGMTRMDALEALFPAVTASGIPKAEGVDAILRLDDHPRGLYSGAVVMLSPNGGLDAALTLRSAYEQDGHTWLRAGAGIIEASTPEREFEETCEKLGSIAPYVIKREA
Protocol: The selected furan-based compounds were screened against Mab-SaS enzymatic activity at 100 µM (dissolved in a solution containing 10% DMSO). Assays were performed at subsaturating concentrations of chorismic acid (50 μM), as above. For the most promising compounds, the IC50 value was also determined.
To further verify the reliability of the inhibition results against Mab-SaS, we determined the IC50 of compound 1 in the presence of 0.1 mg/mL bovine serum albumin (BSA) or in the presence of 0.01% (v/v) Triton X-100 as a detergent. Moreover, to exclude an unspecific binding to cysteine residues, we also tested the IC50 with 100 μM of 1,4-dithio-DL-threitol (DTT).

Mab = assay: MIC evaluation by resazurin assay in iron-limiting conditions; type: cell-based, M. abscessus; conditions: Mycobacteroides abscessus, chelated Sauton's medium, highest concentration tested 500 μM, read-out: antimycobacterial activity (MIC)
Protocol: Exponentially growing primary cultures were diluted 1:10 in iron-depleted Sauton’s medium enriched with 10% OACD. The secondary Mab culture growing in iron-limiting conditions was then diluted to OD600 0.005 using iron-depleted Sauton’s medium. Each well of the 96-well plate was filled with 100 μL of the diluted cell suspension. For each plate, the first four wells of the first row were filled with the cellular suspension and no drug was added (negative control). The following four wells were filled with the cellular suspension and treated with the vehicle volume. The last four wells of the first row were filled with the cellular suspension and treated with 1 mg/mL Streptomycin (positive control). Only the first well of the other rows was filled with 200 μL of cell suspension. In this well, the highest concentration of compound 1 (500 µM) was added and then two-fold serially diluted. After 24 h of incubation at 37 °C, 10 μL/well of 0.01% resazurin was added. The plate was re-incubated at 37 °C for 24 h and then read out. Pink wells indicated bacterial viability, whereas wells with an unchanged blue color indicated cidality. The MIC was counted as the lowest compound concentration causing cidality.

M. bovis BCG = conditions: cited from earlier work
Mab-SaS [2] = molecular target: T1, Mab-SaS; assay: Grating-Coupled Interferometry (GCI) binding analysis; design: species or system M. abscessus; conditions: 25 °C, 1:1 kinetic model
Protocol: The binding affinity and ligand efficiency of the furan-based library was evaluated by Grating-Coupled Interferometry (GCI). The analyses were performed by the Creoptix WAVE system (Malvern Panalytical, Malvern, UK). Borate buffer (100 mM sodium borate pH 9.0, 1 M NaCl) was used for chip conditioning. Experiments were carried out by reversibly capturing His-tagged Mab-SaS (50 μg/mL in running buffer, i.e., PBS, 0.05% Tween 20, 0.5% DMSO) on 4PCP-NTA WAVE chips, according to the manufacturer’s instructions, at a density of 3000 pg/mm^2.
Regeneration-free injections of a 1:2 dilution series in the 500–3 μM range for each compound of the furan-based library in running buffer were performed at 25 °C, using a flow rate of 100 μL/min.
A dimethyl sulfoxide (DMSO) calibration curve was used for bulk correction, and blank injections for double referencing. Data were analyzed and corrected using the Creoptix WAVE control software (correction applied: X and Y offset; DMSO calibration; double referencing). The processed data were fitted using the “1:1” kinetic model of the WAVE control software. All the experiments were performed in triplicate. Descriptive Statistical Analysis, as implemented in Microsoft Office Excel 10 (Microsoft Corporation, Redmond, WA, USA), was employed to calculate the mean of the obtained values of kon, koff, and KD as a measure of central tendency; standard deviations of the former values were computed as a measure of dispersion.

[3] = system: C=C(O[C@@H]1C=C(C(=O)O)C=C[C@H]1O)C(=O)O; assay: purified protein, by the assay type; conditions: other: substrate of Mab-SaS, 37 °C, pH 7.5
[4] = no additive, 50 μM chorismic acid, read-out: IC50

Compound | IC50 (Mab-SaS [1]; 100 μM DTT in the reaction mixture, read-out: IC50 in the presence of DTT) [µM] | inhibition at 100 µM (Mab-SaS [1]; 100 μM compound) [%] | remaining activity at 100 µM (Mab-SaS [1]; 50 μM chorismic acid) [%] | IC50 (Mab-SaS [1]; 0.1 mg/mL bovine serum albumin (PAIN analysis), read-out: IC50 in the presence of BSA) [µM] | IC50 (Mab-SaS [1]; 0.01% (v/v) Triton X-100 (PAIN analysis), read-out: IC50 in the presence of Triton X-100) [µM] | IC50 (Mab-SaS [1]; [4]) [µM] | MIC (Mab) [µM] | antimycobacterial activity on M. bovis BCG (M. bovis BCG) [µM] | Kd (Mab-SaS [2]) [µM] | koff (Mab-SaS [2]) [s⁻¹] | kon (Mab-SaS [2]) [M⁻¹ s⁻¹] | Km [3] [µM]
O=C(O)c1ccc(-c2ccc(C(F)(F)F)cc2C(F)(F)F)o1 [Compound 1, 5-(2,4-bis(trifluoromethyl)phenyl)furan-2-carboxylic acid] | 6.1 ± 1.42 | 98.8 | 1.2 ± 2.8 | 5.2 ± 0.68 | 6.5 ± 0.56 | 5.3 ± 1.5 | > 500 | 500 | 6.11 ± 0.16 | 9.77e-05 | 15.4 ± 5 | –
Nc1cc([N+](=O)[O-])ccc1-c1ccc(C(=O)O)o1 [Compound 2, 5-(2-amino-4-nitrophenyl)furan-2-carboxylic acid] | – | – | 2.3 ± 0.7 | – | – | 23.6 ± 1.8 | – | – | 12.7 ± 3.32 | 0.00303 | 244 ± 6200 | –
O=C(O)c1ccc(-c2cc(C(F)(F)F)cc(C(F)(F)F)c2)o1 [Compound 3, 5-(3,5-bis(trifluoromethyl)phenyl)furan-2-carboxylic acid] | – | – | 15.6 ± 2.5 | – | – | 29.5 ± 1.6 | – | – | 67.5 ± 9.51 | 0.00675 ± 6.1e-07 | 100 ± 500 | –
Mab-SaS (Mycobacteroides abscessus ATCC 19977) | – | – | – | – | – | – | – | – | – | – | – | 58
